Residues, ends and D or L forms follow the SMILES beside them. *: point of attachment. Cbz = O=C(OCc1ccccc1)*; CH2F = FC*
Tests used:
[1] = target: T1, TrkC (Mus musculus, UniProt Q6VNS1); assay: TrkC cleavage in semidissociated embryonic mouse DRG (Western blot); type: cell-based; conditions: DRG maintained overnight; NT-3 10 ng/ml
T1 construct: embryonic mouse dorsal root ganglion (DRG) were semidissociated and maintained overnight; from tissue; host or cells: spinal cord, somites and DRG precursors of E10.5 OF1 mouse embryos, semidissociated
T1 sequence (Q6VNS1 32-825): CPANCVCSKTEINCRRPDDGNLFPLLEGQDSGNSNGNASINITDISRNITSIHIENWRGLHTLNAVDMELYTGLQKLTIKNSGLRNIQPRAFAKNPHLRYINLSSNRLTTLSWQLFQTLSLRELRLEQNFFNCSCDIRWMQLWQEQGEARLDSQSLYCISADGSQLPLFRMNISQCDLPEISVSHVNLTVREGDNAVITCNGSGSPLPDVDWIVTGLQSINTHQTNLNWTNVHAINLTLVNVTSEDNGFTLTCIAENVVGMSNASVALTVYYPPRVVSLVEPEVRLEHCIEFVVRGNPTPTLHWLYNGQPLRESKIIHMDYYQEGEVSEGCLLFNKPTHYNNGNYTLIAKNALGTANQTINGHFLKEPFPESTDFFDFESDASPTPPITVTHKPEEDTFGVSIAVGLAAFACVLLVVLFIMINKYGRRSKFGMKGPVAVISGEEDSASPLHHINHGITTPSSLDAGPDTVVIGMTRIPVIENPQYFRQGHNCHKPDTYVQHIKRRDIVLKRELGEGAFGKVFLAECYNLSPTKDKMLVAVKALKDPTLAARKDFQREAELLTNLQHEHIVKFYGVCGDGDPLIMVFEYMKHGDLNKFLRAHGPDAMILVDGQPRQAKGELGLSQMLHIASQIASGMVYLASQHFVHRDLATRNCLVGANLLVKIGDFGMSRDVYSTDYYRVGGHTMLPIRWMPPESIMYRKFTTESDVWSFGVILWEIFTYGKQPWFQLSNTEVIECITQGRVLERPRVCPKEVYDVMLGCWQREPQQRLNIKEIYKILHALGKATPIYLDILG
Procedure: (§1) To observe the cleavage of TrkC in 13.S.24, MG132 ([…], Z-Leu-Leu-Leuala, Sigma-Aldrich) was added to the culture medium 2 h before harvesting the cells. Cells were then potterised in the Wang buffer (20 mM Hepes KOH/10 mMKCl/1.5 mM MgC12/1 mM Sodium EDTA/1 mM Sodium EGTA/0.1 mM PMSF/1 mM DTT/[…]). Proteins were then analyzed by Western blot using the anti-TrkC antibody (sc-139; Santa Cruz Biotechnology). To monitor TrkC cleavage in vivo, E10.5 OF1 mouse embryos were dissected with a sharpened tungsten needle to isolate the spinal cord, the somites and DRG precursors which were then semidissociated in DMEM F-12 (Invitrogen). The samples were incubated overnight under agitation at 37° C. in the presence or absence of either NT-3 (PreproTech; 10 ng/ml), or BAF (Sigma-Aldrich; […]), or the NT-3 blocking antibody AF1404 (R&D, Minneapolis, Minn.; 1/100). The samples were then lysed directly in the Laemmli sample buffer and the proteins separated on 12% SDS/PAGE. The filter was probed with the anti-TrkC antibody.

[2] = target: T2, TrkC (Homo sapiens, UniProt Q16288); assay: Endogenous TrkC cleavage in CLB-Ge2 cells (western blot); type: cell-based; design: endogenous in cells; host or cells: CLB-Ge2 human neuroblastoma cells
T2 sequence (Q16288 32-839): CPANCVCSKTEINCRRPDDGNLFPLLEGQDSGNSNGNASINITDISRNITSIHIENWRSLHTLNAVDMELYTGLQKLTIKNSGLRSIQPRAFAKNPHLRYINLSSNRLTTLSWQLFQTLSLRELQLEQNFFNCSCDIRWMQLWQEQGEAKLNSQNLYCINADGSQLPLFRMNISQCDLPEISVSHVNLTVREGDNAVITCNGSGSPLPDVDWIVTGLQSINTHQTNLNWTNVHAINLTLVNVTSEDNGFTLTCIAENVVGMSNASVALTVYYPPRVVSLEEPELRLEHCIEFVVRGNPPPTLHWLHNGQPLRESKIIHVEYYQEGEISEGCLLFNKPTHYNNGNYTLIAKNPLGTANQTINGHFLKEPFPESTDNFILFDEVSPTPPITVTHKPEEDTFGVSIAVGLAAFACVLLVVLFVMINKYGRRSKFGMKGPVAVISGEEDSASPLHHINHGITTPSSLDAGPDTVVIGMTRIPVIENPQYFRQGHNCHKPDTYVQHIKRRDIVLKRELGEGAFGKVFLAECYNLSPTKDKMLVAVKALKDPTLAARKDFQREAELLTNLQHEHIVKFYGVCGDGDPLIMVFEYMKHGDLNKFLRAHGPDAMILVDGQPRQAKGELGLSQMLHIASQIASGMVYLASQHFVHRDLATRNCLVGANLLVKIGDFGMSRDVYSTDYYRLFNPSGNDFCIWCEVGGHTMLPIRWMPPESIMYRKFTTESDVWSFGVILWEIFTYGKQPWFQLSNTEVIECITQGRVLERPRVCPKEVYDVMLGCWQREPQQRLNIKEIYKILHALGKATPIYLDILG
Procedure: 8×10^4 cells were cytospun on coverslips and fixed in 4% PFA. The slides were then incubated at room temperature for one hour with an antibody recognizing human NT-3 (1/300, SC-547). After rinsing in Phosphate Buffer Saline, the slides were incubated with an Alexa-488-Donkey anti-Rabbit antibody (Molecular Probes). Nucleus were visualized with Hoechst staining (Sigma). Expression of TrkC constructs and endogenous TrkC cleavage were monitored by western blot with anti-Trk antibody (sc-11; Santa Cruz Biotechnology) and an anti […]-actin (13E5; Cell Signaling) was used as loading control as previously described (36).

[3] = system: TrkC; assay: TrkC caspase cleavage in TrkC-expressing 13.S.24 cells (immunoblot); type: cell-based, rat; conditions: 13.S.24 cells expressing TrkC; C-terminal TrkC antibody
Procedure: as §1

[4] = target: T3, rat TrkC (Rattus norvegicus, UniProt Q03351); assay: TrkC-induced apoptosis in TrkC-transfected HEK293T or 13.S.24 cells (trypan blue, caspase activity, DNA condensation); type: cell-based; conditions: for TrkC-induced apoptosis: general caspase inhibitors added after TrkC transfection
T3 construct: We first transiently expressed full-length rat TrkC in HEK293T cells; HA; expressed in transfected cells; host or cells: HEK293T or 13.S.24 olfactory neuroblasts
T3 sequence (Q03351 32-825 isoform Q03351-2 limits assumed): as the sequence (Q6VNS1 32-825) above
Procedure: (§2) Transient transfections of Human Embryonic Kidney 293T and olfactory neuroblasts 13.S.24 cells were performed as previously described (4), by using Lipofectamine Plus (Invitrogen, Carlsbad, Calif.) according to the manufacturer's instructions. HEK293T and 13.S.24 cells where cultured in DMEM (Invitrogen) with the addition of 0.1% gentamycin for 13.S.24 cells. The recombinant human NT-3 was purchased from PreproTech (Rocky Hill, N.J.) and added to the culture medium 3 and 24 h after transfection. TrkC expression was monitored by Western blot with an anti-C-terminal antibody purchased from Santa Cruz Biotechnology (sc-139; Santa Cruz, Calif.), 24 h after transfection. Plasma membrane localisation of Trk receptors was performed by FACS analysis. Briefly, […] cells were transfected and labeled successively with anti-HA antibody (1/100; Sigma, St. Louis, Mo.) and anti-rabbit PE (1/100; Jackson ImmunoResearch Laboratories, West Grove, Pa.). Detection was done using a FACSCalibur (BD Biosciences, San Jose, Calif.).
Cell death was analyzed using trypan blue staining procedures, as previously described (6). Either the z-VAD-fmk (TEBU-bio, Le Perray en Yvelines Cedex, France; […]) or the BAF [Boc-Asp(Ome) Fluoromethyl Ketone; Sigma-Aldrich; […]] caspase inhibitors were added to the culture medium just after transfection. The extent of cell death is presented as the percentage of trypan blue-positive cells in the different transfected cell populations. Relative caspase activity was determined by fluorescence measurement of DEVDAFC cleavage, as described in (8). Immunostaining using anti-caspase-3 antibody (Cell Signaling) was described in (4). […] For flow cytometric analysis, stained cells were counted using a FACSCalibur (BD Biosciences) and CellQuest analysis software with excitation and emission settings of 488 nm and 525-550 nm (filter FL1), respectively.

[5] = target: T2, TrkC; assay: Human TrkC-induced cell death in transfected 13.S.24 cells (active caspase-3); type: cell-based; design: expressed in transfected cells; host or cells: 13.S.24 olfactory neuroblasts; conditions: NT-3 10 ng/ml
Procedure: as §2, with “Detection was done using a FACSCalibur (BD Biosciences, San Jose, Calif.).” left out
Cell death was analyzed using trypan blue staining procedures, as previously described (6). […] Relative caspase activity was determined by fluorescence measurement of DEVDAFC cleavage, as described in (8). […] For flow cytometric analysis, stained cells were counted using a FACSCalibur (BD Biosciences) and CellQuest analysis software with excitation and emission settings of 488 nm and 525-550 nm (filter FL1), respectively.

Molecule | 20-kDa TrkC fragment [1] | TrkC caspase cleavage (20 kDa band) [2] | TrkC cleavage bands (35 and 20 kDa) [3] | TrkC-induced apoptosis [4] | human TrkC-triggered cell death [5] | TrkC-mediated cell death (trypan blue exclusion, caspase activity, DNA condensation) ([4]; rat TrkC-transfected 13.S.24 cells, NT-3 0.5-50 ng/ml)
COC(=O)CC(NC(=O)OC(C)(C)C)C(=O)CF (stereo not shown) [BAF, boc-aspartyl(OMe)-fluoromethylketone] | disappeared | blocked | failed to be detected | fully inhibit TrkC-induced apoptosis | – | –
NT-3: recombinant human NT-3 purchased from PreproTech; ligand of TrkC | disappeared | – | – | – | triggers cell death unless NT-3 is present | inhibited, in a dose-dependent manner
COC(=O)CC[C@H](NC(=O)[C@H](CC(=O)OC)NC(=O)OCc1ccccc1)C(=O)N[C@H](C(=O)N[C@@H](CC(=O)OC)C(=O)CF)C(C)C [DEVD-fmk] | – | – | fail to block caspase-dependent cleavage of TrkC | – | – | –
COC(=O)C[C@H](NC(=O)[C@H](C)NC(=O)[C@@H](NC(=O)OCc1ccccc1)C(C)C)C(=O)CF [zVAD-fmk] (Cbz-Val-Ala-Asp(OMe)-CH2F) | – | – | failed to be detected | fully inhibit TrkC-induced apoptosis | – | –

Reference: US20140186364A1, “INHIBITION OF THE NT-3:TRKC BOUND AND ITS APPLICATION TO THE TREATMENT OF CANCER SUCH AS NEUROBLASTOMA” (CENTRE NATIONAL DE LA RECHERCHE SCIENTIFIQUE (CNRS), priority 2008, published 2014)
